Assay results reported in paper PMC11494653, “Teixobactin “Swapmers” with L Tail Stereochemistry Retain Antibiotic Activity” (The Journal of Organic Chemistry, 2024).
Values after ≈ are worked out from the molar mass of the structure shown. Positions of bridges follow the written chain, without caps; N, C: chain ends. Non-standard residues stand in square brackets, D forms with d. Residues, ends and D or L forms follow the SMILES beside them. Chains are numbered I, II in the order given. d(aIle) = CC[C@H](C)[C@@H](N)C(=O)O; NMeF = CN[C@@H](Cc1ccccc1)C(=O)O; dNMeF = CN[C@H](Cc1ccccc1)C(=O)O

Assays:
Format in all cases: cell-based
[1] = tested on: Bacillus subtilis ATCC 6051; test: microbe, parasite or virus in culture; settings: for MIC Bacillus subtilis ATCC 6051 / MIC B. subtilis: ATCC 6051, 16 h
Text: (§1) We determined the MIC values of these teixobactin swapmer prodrugs against the Gram-positive bacteria Bacillus subtilis, Staphylococcus epidermidis, methicillin-susceptible Staphylococcus aureus (MSSA), and methicillin-resistant Staphylococcus aureus (MRSA) in a broth microdilution assay as described previously.[9],[10] We used the antibiotic vancomycin as a positive control and the Gram-negative bacterium Escherichia coli as a negative control. The MIC values for Lys10-teixobactin 1, Lys10-teixobactin prodrug 2, Arg10-teixobactin 6, and Arg10-teixobactin prodrug 7 are shown in Table 1 for comparison with the swapmer analogues.
(§2) We performed minimum inhibitory concentration (MIC) assays as previously described.[9] A concise procedure is detailed below.
(§3) Stock solutions of teixobactin analogues were prepared gravimetrically by dissolving an appropriate amount of peptide in 20 mg/mL sterile DMSO. The stock solutions were stored at −20 °C for subsequent experiments.
(§4) Bacillus subtilis (ATCC 6051), Staphylococcus epidermidis (ATCC 14990), methicillin-susceptible Staphylococcus aureus (MSSA) (ATCC 29213), and Escherichia coli (ATCC 10798) were cultured from glycerol stocks in Mueller-Hinton broth containing 0.002% polysorbate 80 overnight in a shaking incubator at 37 °C. Methicillin-resistant Staphylococcus aureus (MRSA) (ATCC 700698) was cultured from a glycerol stock in brain hearth infusion broth containing 0.002% polysorbate 80 overnight in a shaking incubator at 37 °C. After overnight incubation, each culture was diluted with the appropriate media (containing 0.002% polysorbate 80) to 1 × 10^6 colony-forming units (CFU)/mL as previously described.[12],[15],[16] Briefly, we have previously determined the CFU/mL for each bacterium at OD600 = 0.075 for 200 μL of bacterial culture in a 96-well plate. The OD600 of each overnight culture was determined, and then each culture was diluted to OD600 = 0.075. Cultures were further diluted to achieve 1 × 10^6 CFU/mL solutions.
(§5) Aliquots of the 20 mg/mL peptide stock solutions were diluted to make a 64 μg/mL solution in Mueller-Hinton broth containing 0.002% polysorbate 80 and a 64 μg/mL solution in brain heart infusion broth containing 0.002% polysorbate 80. The solutions were mixed by pipetting to ensure homogeneity. A 200-μL aliquot of a 64 μg/mL solution was transferred to a 96-well plate. 2-fold serial dilutions were made with media containing 0.002% polysorbate 80 across the 96-well plate to achieve a final volume of 100 μL in each well (initial concentrations ranging from 64 to 0.0625 μg/mL). A 100-μL aliquot of a 1 × 10^6 CFU/mL bacterial solution was added to each well in the series, resulting in final bacterial concentrations of 5 × 10^5 CFU/mL in each well. As 100 μL of bacteria were added to each well, the concentration of peptide was also diluted 2-fold (final concentrations ranging from 32 μg/mL to 0.03125 μg/mL). Each plate was covered with a lid and incubated at 37 °C for 16 h. The optical density measurements were measured at 600 nm using a 96-well UV–vis plate reader (MultiSkan GO, Thermo Scientific). The MIC values were taken as the lowest concentration that had no bacterial growth. MIC assays for each compound were performed in triplicate to ensure reproducibility.

[2] = tested on: Staphylococcus aureus (MSSA) ATCC 29213; test: microbe, parasite or virus in culture; settings: for MIC Staphylococcus aureus (MSSA) ATCC 29213: ATCC 29213, 16 h
Text: as §1, §2, §3, §4, §5

[3] = tested on: Staphylococcus aureus (MRSA) ATCC 700698; test: microbe, parasite or virus in culture; settings: for MIC Staphylococcus aureus (MRSA) ATCC 700698: ATCC 700698, 16 h
Text: as §1, §2, §3, §4, §5

[4] = tested on: Staphylococcus epidermidis ATCC 14990; test: microbe, parasite or virus in culture; settings: for MIC Staphylococcus epidermidis ATCC 14990: ATCC 14990, 16 h
Text: as §1, §2, §3, §4, §5

[5] = tested on: Escherichia coli ATCC 10798; test: microbe, parasite or virus in culture; settings: for MIC Escherichia coli ATCC 10798: ATCC 10798, 16 h
Text: as §1, §2, §3, §4, §5

all bacteria tested = test: MIC broth microdilution assay, summary over all bacteria; settings: concentration range tested up to 32 μg/mL
Text: as §1, §2, §3
as §4, with “After overnight incubation, each culture was diluted with the appropriate media (containing 0.002% polysorbate 80) to 1 × 10^6 colony-forming units (CFU)/mL as previously described.[12],[15],[16]” left out, “Cultures were further diluted to achieve 1 × 10^6 CFU/mL solutions.” left out
Aliquots of the 20 mg/mL peptide stock solutions were diluted to make a 64 μg/mL solution in Mueller-Hinton broth containing 0.002% polysorbate 80 and a 64 μg/mL solution in brain heart infusion broth containing 0.002% polysorbate 80. […] The optical density measurements were measured at 600 nm using a 96-well UV–vis plate reader (MultiSkan GO, Thermo Scientific). […]

[6] = tested on: Gram-positive bacteria tested; settings: 16 h
Text: as §1, §2, §3, §4
Aliquots of the 20 mg/mL peptide stock solutions were diluted to make a 64 μg/mL solution in Mueller-Hinton broth containing 0.002% polysorbate 80 and a 64 μg/mL solution in brain heart infusion broth containing 0.002% polysorbate 80. The solutions were mixed by pipetting to ensure homogeneity. A 200-μL aliquot of a 64 μg/mL solution was transferred to a 96-well plate. 2-fold serial dilutions were made with media containing 0.002% polysorbate 80 across the 96-well plate to achieve a final volume of 100 μL in each well (initial concentrations ranging from 64 to 0.0625 μg/mL). […] The optical density measurements were measured at 600 nm using a 96-well UV–vis plate reader (MultiSkan GO, Thermo Scientific). […]

Row | Structure (SMILES) | MIC Bacillus subtilis ATCC 6051 [1] [µg/mL] | MIC Staphylococcus aureus (MSSA) ATCC 29213 [2] [µg/mL] | MIC Staphylococcus aureus (MRSA) ATCC 700698 [3] [µg/mL] | MIC Staphylococcus epidermidis ATCC 14990 [4] [µg/mL] | MIC Escherichia coli ATCC 10798 [5] [µg/mL] | antibiotic activity in words against all bacteria tested (all bacteria tested) | MIC values against the Gram-positive bacteria tested [6] [µg/mL] | fold reduced activity compared to the unswapped analogues 1, 2, 6, and 7 [6] | MIC ([1]; Bacillus subtilis, ATCC6051, 16 h, read-out: MIC Bacillus subtilis ATCC 6051) [µg/mL] | MIC ([2]; Staphylococcus aureus, 16 h, read-out: MIC Staphylococcus aureus (MSSA) ATCC 29213) [µg/mL] | MIC ([3]; Staphylococcus aureus, 16 h, read-out: MIC Staphylococcus aureus (MRSA) ATCC 700698) [µg/mL] | MIC ([4]; Staphylococcus epidermidis, ATCC14990, 16 h, read-out: MIC Staphylococcus epidermidis ATCC 14990) [µg/mL] | MIC ([5]; Escherichia coli, ATCC10798, 16 h, read-out: MIC Escherichia coli ATCC 10798) [µg/mL] | MIC B. subtilis [1] [µg/mL]
1 | CC[C@H](C)[C@H](NC(=O)[C@H](Cc1ccccc1)NC)C(=O)N[C@@H](CO)C(=O)N[C@H](C(=O)N[C@@H](CCC(N)=O)C(=O)N[C@H](C(=O)OC[C@H](N)C(=O)N[C@H]1C(=O)N[C@@H](C)C(=O)N[C@@H](CCCCN)C(=O)N[C@@H]([C@@H](C)CC)C(=O)O[C@H]1C)[C@@H](C)CC)[C@@H](C)CC [compound 4, N-Me-L-Phe1,Ile4,Gln5,[Ile6-O-Ser7],Lys10-teixobactin] (I: H-[NMeF]ISIQI / II: H-S[dT]AKI; ester I:C-II:1, II:2-II:C) | ≥32 | >32 | >32 | >32 | >32 | virtually inactive |  |  |  |  |  |  |  | 
2 | CC[C@H](C)[C@H](NC(=O)[C@H](CO)NC(=O)[C@@H](NC(=O)[C@@H](Cc1ccccc1)NC)[C@@H](C)CC)C(=O)N[C@@H](CCC(N)=O)C(=O)N[C@H](C(=O)OC[C@H](N)C(=O)N[C@H]1C(=O)N[C@@H](C)C(=O)N[C@@H](CCCNC(=N)N)C(=O)N[C@@H]([C@@H](C)CC)C(=O)O[C@H]1C)[C@@H](C)CC [compound 8, Ile4,Gln5,[Ile6-O-Ser7],Arg10-teixobactin] (I: H-[dNMeF]ISIQI / II: H-S[dT]ARI; ester I:C-II:1, II:2-II:C) | 2 (≈ 1.61 µM) | 4 (≈ 3.21 µM) | 4 (≈ 3.21 µM) | 2 (≈ 1.61 µM) | >32 |  | 2 to 4 | 2–4 fold |  |  |  |  |  | 
3 | CN[C@H](CC(C)C)C(=O)N[C@H]1C(=O)N[C@@H](CC(N)=O)C(=O)N[C@H]2C(=O)N[C@H]3C(=O)N[C@H](C(=O)N[C@H](C(=O)O)c4cc(O)cc(O)c4-c4cc3ccc4O)[C@H](O)c3ccc(c(Cl)c3)Oc3cc2cc(c3O[C@@H]2O[C@H](CO)[C@@H](O)[C@H](O)[C@H]2O[C@H]2C[C@](C)(N)[C@H](O)[C@H](C)O2)Oc2ccc(cc2Cl)[C@H]1O [vancomycin, reference compound] |  |  |  |  |  |  |  |  | 0.125 to 0.25 (≈ 0.0863 to 0.173 µM) | 1 to 2 (≈ 0.69 to 1.38 µM) | 4 (≈ 2.76 µM) | 1 to 2 (≈ 0.69 to 1.38 µM) | > 32 | 
4 | CC[C@H](C)[C@H](NC(=O)[C@@H](Cc1ccccc1)NC)C(=O)N[C@@H](CO)C(=O)N[C@H](CCC(N)=O)C(=O)N[C@@H](C(=O)N[C@H](C(=O)OC[C@H](N)C(=O)N[C@H]1C(=O)N[C@@H](C)C(=O)N[C@@H](CCCCN)C(=O)N[C@@H]([C@@H](C)CC)C(=O)O[C@H]1C)[C@@H](C)CC)[C@@H](C)CC [compound 2, [Ile6-O-Ser7],Lys10-teixobactin] (I: H-[dNMeF]IS[dQ][d(aIle)]I / II: H-S[dT]AKI; ester I:C-II:1, II:2-II:C) | ≤0.0313 | 2 (≈ 1.64 µM) | 1 to 2 | 1 (≈ 0.822 µM) | >32 |  |  |  |  |  |  |  |  | ≤ 0.0625
5 | CC[C@H](C)[C@H](NC(=O)[C@@H](Cc1ccccc1)NC)C(=O)N[C@@H](CO)C(=O)N[C@H](CCC(N)=O)C(=O)N[C@@H](C(=O)N[C@H](C(=O)OC[C@H](N)C(=O)N[C@H]1C(=O)N[C@@H](C)C(=O)N[C@@H](CCCNC(=N)N)C(=O)N[C@@H]([C@@H](C)CC)C(=O)O[C@H]1C)[C@@H](C)CC)[C@@H](C)CC [compound 7, [Ile6-O-Ser7],Arg10-teixobactin] (I: H-[dNMeF]IS[dQ][d(aIle)]I / II: H-S[dT]ARI; ester I:C-II:1, II:2-II:C) | 0.0625 (≈ 0.0502 µM) | 2 (≈ 1.61 µM) | 1 (≈ 0.804 µM) | 0.5 (≈ 0.402 µM) | >32 |  |  |  |  |  |  |  |  | ≤ 0.0625
6 | CC[C@H](C)[C@H](NC(=O)[C@@H](Cc1ccccc1)NC)C(=O)N[C@@H](CO)C(=O)N[C@H](CCC(N)=O)C(=O)N[C@@H](C(=O)N[C@H](C(=O)N[C@@H](CO)C(=O)N[C@H]1C(=O)N[C@@H](C)C(=O)N[C@@H](CCCNC(=N)N)C(=O)N[C@@H]([C@@H](C)CC)C(=O)O[C@H]1C)[C@@H](C)CC)[C@@H](C)CC [compound 6, Arg10-teixobactin] | ≤0.0313 | 2 (≈ 1.61 µM) | 2 (≈ 1.61 µM) | 0.5 (≈ 0.402 µM) | >32 |  |  |  |  |  |  |  |  | ≤ 0.0625
7 | CC[C@H](C)[C@H](NC(=O)[C@H](CO)NC(=O)[C@@H](NC(=O)[C@@H](Cc1ccccc1)NC)[C@@H](C)CC)C(=O)N[C@@H](CCC(N)=O)C(=O)N[C@H](C(=O)OC[C@H](N)C(=O)N[C@H]1C(=O)N[C@@H](C)C(=O)N[C@@H](CCCCN)C(=O)N[C@@H]([C@@H](C)CC)C(=O)O[C@H]1C)[C@@H](C)CC [compound 3, Ile4,Gln5,[Ile6-O-Ser7],Lys10-teixobactin] (I: H-[dNMeF]ISIQI / II: H-S[dT]AKI; ester I:C-II:1, II:2-II:C) | 4 (≈ 3.29 µM) | 8 (≈ 6.58 µM) | 8 (≈ 6.58 µM) | 4 (≈ 3.29 µM) | >32 |  | 4 to 8 | 2–4 fold |  |  |  |  |  | 
8 | CC[C@H](C)[C@H](NC(=O)[C@@H](Cc1ccccc1)NC)C(=O)N[C@@H](CO)C(=O)N[C@H](CCC(N)=O)C(=O)N[C@@H](C(=O)N[C@H](C(=O)N[C@@H](CO)C(=O)N[C@H]1C(=O)N[C@@H](C)C(=O)N[C@@H](CCCCN)C(=O)N[C@@H]([C@@H](C)CC)C(=O)O[C@H]1C)[C@@H](C)CC)[C@@H](C)CC [compound 1, Lys10-teixobactin] (H-[dNMeF]IS[dQ][d(aIle)]IS[dT]AKI; ester 8-C) | ≤0.0313 | 2 (≈ 1.64 µM) | 2 (≈ 1.64 µM) | 1 (≈ 0.822 µM) | >32 |  |  |  |  |  |  |  |  | ≤ 0.0625
